Key:
[1] = solubility in aqueous media; assay type: physicochemical
From the text: Therefore it is not straightforward or easy to formulate it into pharmaceutical compositions, e.g. for oral administration.

[2] = stability in the solid state (heat, heat/humidity, light); assay type: physicochemical; settings: after one week at 80° C. in a close container, or at 80° C./75% r.h. in open container, or upon exposure to light (1200 kLux, 300-800 nm)
From the text: Criteria for selecting the salts of the invention include i) dissolution in water, with measurement of degradation products, and decoloration, ii) stability against heat in solid state, iii) exposure to light (e.g. Xenon light), iv) corosivity to steel.

SMILES	solubility in aqueous media [1]	stability in the solid state [2]
CN1CCN(c2nc(C3=C(c4c[nH]c5ccccc45)C(=O)NC3=O)c3ccccc3n2)CC1 [free base, 3-(1.H.-indol-3-yl)-4-[2-(4-methyl-piperazin-1-yl)-quinazolin-4-yl]-pyrrole-2,5-dione]	relatively low solubility	
CN1CCN(c2nc(C3=C(c4c[nH]c5ccccc45)C(=O)NC3=O)c3ccccc3n2)CC1.O=C(O)/C=C\C(=O)O [maleate, Maleate Salt of 3-(1.H.-indol-3-yl)-4-[2-(4-methyl-piperazin-1-yl)-quinazolin-4-yl]-pyrrole-2,5-dione]		very good stability
CN1CCN(c2nc(C3=C(c4c[nH]c5ccccc45)C(=O)NC3=O)c3ccccc3n2)CC1.CS(=O)(=O)O [mesylate salt, Mesylate Salt of 3-(1.H.-indol-3-yl)-4-[2-(4-methyl-piperazin-1-yl)-quinazolin-4-yl]-pyrrole-2,5-dione]		very good stability

— US20120053184A1, “SALTS OF 3-(1H-IND0L-3-YL)-4-[2-(4-METHYL-PIPERAZIN-I-YL)-QUINAZOLIN-4-YL]-PYRROLE-2, 5-DI ONE” (priority 2007, published 2012)
